# System: Eschericia coli strain ATCC25922
# Test: standard microdilution assay to determine minimum inhibitory concentrations (MICs)
# Assay type: cell-based
# Conditions: Escherichia coli, ATCC25922, Eschericia coli strain ATCC25922, standard microdilution assay; read-out: E. coli ATCC25922 MIC
# Description: Minimum inhibitory concentrations (MICs) are determined by the microdilution method, typically in a final volume of 100 microliters, according to protocols outlined by The Clinical and Laboratory Standards Institute [CLSI; formerly the National Committee for Clinical Laboratory Standards (NCCLS)]. See CLSI: Methods for dilution antimicrobial susceptibility tests for bacteria that grow aerobically; approved standard-fifth edition. Wayne, Pa.: NCCLS; 2000. The assays can be also be performed in microtiter trays according to conventional methodologies as published by the CLSI. See CLSI. Methods for Dilution Antimicrobial Susceptibility Tests for Bacteria That Grow Aerobically; Approved Standard-Seventh Edition. CLSI Document M7-A7 [ISBN 1-56238-587-9] CLSI, 940 West Valley Road, Suite 1400, Wayne Pa. 19087-1898 USA, 2006).
# The compounds of the present invention were tested for antimicrobial activity. The compounds were run against Eschericia coli strain ATCC25922 using a standard microdilution assay to determine minimum inhibitory concentrations (MICs). […] A “N/A” means that data is unavailable. It will be recognized by one skilled in the art that the compounds can be assessed against other bacterial organisms and that the presentation of data for activity against Eschericia coli is illustrative and in no way is intended to limit the scope of the present invention. The compounds of the present invention can be assayed against a range of other microorganisms depending upon the performance activity desired to be gathered. Furthermore, the “+”, “−”, and “N/A” representation and the selection of a cutoff value of 16 micrograms/ml is also illustrative and in no way is intended to limit the scope of the present invention.
row,Compound,MIC [µg/mL]
1,O=C(NCc1ccc(F)cc1)Nc1nc(=O)c(-c2ccc(CNCCCF)c(Cl)c2)c[nH]1 [Compound 257],> 16
2,NCCCNCc1ccc(-c2c[nH]c(NC(=O)Nc3cccc(Cl)c3Cl)nc2=O)cc1C(F)(F)F [Compound 259],< 16
3,CSCCNCc1ccc(-c2c[nH]c(NC(=O)Nc3ccccc3OC(F)(F)F)nc2=O)cc1Cl [Compound 260],> 16
4,NCCCNCc1ccc(-c2c[nH]c(NC(=O)Nc3cc(F)c(F)cc3F)nc2=O)cc1F [Compound 265],> 16
5,NCCCNCc1ccc(-c2c[nH]c(NC(=O)Nc3cc(F)c(F)cc3F)nc2=O)cc1C(F)(F)F [Compound 266],< 16
6,CSCCNCc1ccc(-c2c[nH]c(NC(=O)NCc3ccc(F)cc3)nc2=O)cc1Cl [Compound 267],> 16
7,CSCCNCc1ccc(-c2c[nH]c(NC(=O)Nc3cc(F)c(F)cc3F)nc2=O)cc1Cl [Compound 268],> 16
8,NCCCNCc1ccc(-c2c[nH]c(NC(=O)Nc3ccccc3OC(F)(F)F)nc2=O)cc1C(F)(F)F [Compound 269],< 16
9,NCCCNCc1ccc(-c2c[nH]c(NC(=O)Nc3ccc(OC(F)F)cc3)nc2=O)cc1C(F)(F)F [Compound 270],> 16
10,O=C(Nc1nc(=O)c(-c2ccc(CNCCCF)c(Cl)c2)c[nH]1)Nc1ccccc1OC(F)(F)F [Compound 271],> 16
11,NCCCNCc1ccc(-c2c[nH]c(NC(=O)Nc3ccc(C(F)(F)F)cc3)nc2=O)cc1C(F)(F)F [Compound 273],> 16
12,O=C(Nc1nc(=O)c(-c2ccc(CNCC3CC3)cc2)c[nH]1)Nc1ccccc1OC(F)(F)F [Compound 274],> 16
13,O=C(Nc1nc(=O)c(-c2ccc(CNCC3CC3)cc2)c[nH]1)Nc1cc(F)c(F)cc1F [Compound 275],> 16
14,O=C(Nc1nc(=O)c(-c2ccc(CNCCCO)cc2)c[nH]1)Nc1cc(F)c(F)cc1F [Compound 276],> 16
15,O=C(Nc1nc(=O)c(-c2ccc(CNCCCO)cc2)c[nH]1)Nc1ccccc1OC(F)(F)F [Compound 277],> 16
16,NCCCNCc1ccc(-c2c[nH]c(NC(=O)Nc3ccccc3OC(F)(F)F)nc2=O)cc1 [Compound 278],< 16
17,CSCCCNCc1ccc(-c2c[nH]c(NC(=O)Nc3cc(F)c(F)cc3F)nc2=O)cc1 [Compound 281],> 16
18,CSCCCNCc1ccc(-c2c[nH]c(NC(=O)Nc3ccccc3OC(F)(F)F)nc2=O)cc1 [Compound 282],> 16
19,O=C(Nc1nc(=O)c(-c2ccc(CNCC(O)CO)cc2)c[nH]1)Nc1ccccc1OC(F)(F)F (centres unmarked) [Compound 283],> 16
20,O=C(Nc1nc(=O)c(-c2ccc(CNCC(O)CO)cc2)c[nH]1)Nc1cc(F)c(F)cc1F (centres unmarked) [Compound 284],> 16
21,NCCCNCc1c(F)cc(-c2c[nH]c(NC(=O)Nc3ccccc3OC(F)(F)F)nc2=O)cc1F [Compound 285],> 16
22,NCCCNCc1c(F)cc(-c2c[nH]c(NC(=O)Nc3cccc(Cl)c3Cl)nc2=O)cc1F [Compound 286],> 16

row,Compound,MIC [µg/mL]
1,NCCCNCc1c(F)cc(-c2c[nH]c(NC(=O)Nc3cc(F)c(F)cc3F)nc2=O)cc1F [Compound 287],> 16
2,Cn1ccnc1CNCc1ccc(-c2c[nH]c(NC(=O)Nc3ccccc3OC(F)(F)F)nc2=O)cc1 [Compound 290],> 16
3,O=C(Nc1nc(=O)c(-c2ccc(CNCc3nccs3)cc2)c[nH]1)Nc1ccccc1OC(F)(F)F [Compound 291],> 16
4,NCCCN(CCCN)Cc1c(F)cc(-c2c[nH]c(NC(=O)Nc3ccccc3OC(F)(F)F)nc2=O)cc1F [Compound 294],< 16
5,NCCCN(CCCN)Cc1c(F)cc(-c2c[nH]c(NC(=O)Nc3cc(F)c(F)cc3F)nc2=O)cc1F [Compound 295],> 16
6,NCCCN(CCCN)Cc1c(F)cc(-c2c[nH]c(NC(=O)Nc3cccc(Cl)c3Cl)nc2=O)cc1F [Compound 297],< 16
7,Cn1ccnc1CNCc1ccc(-c2c[nH]c(NC(=O)Nc3cc(F)c(F)cc3F)nc2=O)cc1 [Compound 299],> 16
8,O=C(O)CCNCc1ccc(-c2c[nH]c(NC(=O)Nc3ccccc3OC(F)(F)F)nc2=O)cc1 [Compound 300],> 16
9,C[S+]([O-])CCCNCc1ccc(-c2c[nH]c(NC(=O)Nc3cc(F)c(F)cc3F)nc2=O)cc1 (centres unmarked) [Compound 302],> 16
10,CC(C)=CCN(CCCN)Cc1ccc(-c2c[nH]c(NC(=O)Nc3cc(F)c(F)cc3F)nc2=O)cc1 [Compound 303],< 16
11,CC(C)=CCN(CCCN)Cc1ccc(-c2c[nH]c(NC(=O)Nc3ccccc3OC(F)(F)F)nc2=O)cc1 [Compound 304],< 16
12,NCCCN(CCCOC(=O)Nc1ccccc1OC(F)(F)F)Cc1ccc(-c2c[nH]c(NC(=O)Nc3ccccc3OC(F)(F)F)nc2=O)cc1 [Compound 305],> 16
13,NCCCN(CCCN)Cc1ccc(-c2c[nH]c(NC(=O)Nc3cccc(Cl)c3Cl)nc2=O)cc1F [Compound 307],< 16
14,NCCCN(CCCN)Cc1ccc(-c2c[nH]c(NC(=O)Nc3ccccc3OC(F)(F)F)nc2=O)cc1F [Compound 308],< 16
15,NCCCN(CCCN)Cc1ccc(-c2c[nH]c(NC(=O)Nc3cc(F)c(F)cc3F)nc2=O)cc1F [Compound 311],> 16
16,NCCCN(Cc1ccc(-c2c[nH]c(NC(=O)Nc3ccccc3OC(F)(F)F)nc2=O)cc1)CC1CC1 [Compound 312],< 16
17,O=C(Nc1nc(=O)c(-c2ccc(CNCc3ncc[nH]3)cc2)c[nH]1)Nc1cc(F)c(F)cc1F [Compound 313],> 16
18,O=C(Nc1nc(=O)c(-c2ccc(CNCc3ncc[nH]3)cc2)c[nH]1)Nc1ccccc1OC(F)(F)F [Compound 314],> 16
19,O=C(O)CCNCc1ccc(-c2c[nH]c(NC(=O)Nc3cc(F)c(F)cc3F)nc2=O)cc1 [Compound 315],> 16
20,CC(C)=CCNCc1ccc(-c2c[nH]c(NC(=O)Nc3ccccc3OC(F)(F)F)nc2=O)cc1 [Compound 316],> 16
21,CC(C)=CCNCc1ccc(-c2c[nH]c(NC(=O)Nc3cc(F)c(F)cc3F)nc2=O)cc1 [Compound 317],> 16
22,O=C(Nc1nc(=O)c(-c2ccc(CNCc3ccncc3)cc2)c[nH]1)Nc1ccccc1OC(F)(F)F [Compound 319],> 16

row,Compound,MIC [µg/mL]
1,NCCCN(CCC(=O)O)Cc1ccc(-c2c[nH]c(NC(=O)Nc3cc(F)c(F)cc3F)nc2=O)cc1 [Compound 320],> 16
2,NCCCN(CCC(=O)O)Cc1ccc(-c2c[nH]c(NC(=O)Nc3ccccc3OC(F)(F)F)nc2=O)cc1 [Compound 321],> 16
3,O=C(Nc1nc(=O)c(-c2ccc(CNCCc3ccncc3)cc2)c[nH]1)Nc1cc(F)c(F)cc1F [Compound 322],> 16
4,O=C(Nc1nc(=O)c(-c2ccc(CNCCc3ccncc3)cc2)c[nH]1)Nc1ccccc1OC(F)(F)F [Compound 323],> 16
5,NCCCN(CCCO)Cc1ccc(-c2c[nH]c(NC(=O)Nc3ccccc3OC(F)(F)F)nc2=O)cc1 [Compound 324],< 16
6,NCCCN(Cc1ccc(-c2c[nH]c(NC(=O)Nc3cc(F)c(F)cc3F)nc2=O)cc1)Cc1ncc[nH]1 [Compound 325],> 16
7,NCCCN(Cc1ccc(-c2c[nH]c(NC(=O)Nc3ccccc3OC(F)(F)F)nc2=O)cc1)Cc1ncc[nH]1 [Compound 326],> 16
8,O=C(O)CCCNCc1ccc(-c2c[nH]c(NC(=O)Nc3cc(F)c(F)cc3F)nc2=O)cc1 [Compound 327],> 16
9,O=C(O)CCCNCc1ccc(-c2c[nH]c(NC(=O)Nc3ccccc3OC(F)(F)F)nc2=O)cc1 [Compound 328],> 16
10,O=C(Nc1nc(=O)c(-c2ccc(CNCc3ccncc3)cc2)c[nH]1)Nc1cc(F)c(F)cc1F [Compound 329],> 16
11,O=C(Nc1nc(=O)c(-c2ccc(CNCc3nccs3)cc2)c[nH]1)Nc1cc(F)c(F)cc1F [Compound 330],> 16
12,NCCCN(CCCO)Cc1ccc(-c2c[nH]c(NC(=O)Nc3cc(F)c(F)cc3F)nc2=O)cc1 [Compound 331],> 16
13,N=C(N)NCCCNCc1ccc(-c2c[nH]c(NC(=O)Nc3ccccc3OC(F)(F)F)nc2=O)cc1 [Compound 332],< 16
14,NCCCNCc1ccc(-c2c[nH]c(Nc3nc4ccccc4[nH]3)nc2=O)cc1 [Compound 334],< 16
15,Cn1ccnc1CN(CCCN)Cc1ccc(-c2c[nH]c(NC(=O)Nc3cc(F)c(F)cc3F)nc2=O)cc1 [Compound 336],> 16
16,NCCCN(Cc1ccncc1)Cc1ccc(-c2c[nH]c(NC(=O)Nc3cc(F)c(F)cc3F)nc2=O)cc1 [Compound 337],< 16
17,NCCCN(Cc1ccncc1)Cc1ccc(-c2c[nH]c(NC(=O)Nc3ccccc3OC(F)(F)F)nc2=O)cc1 [Compound 338],< 16
18,NCCCN(Cc1ccc(-c2c[nH]c(NC(=O)Nc3cc(F)c(F)cc3F)nc2=O)cc1)Cc1nccs1 [Compound 339],> 16
19,NCCCN(Cc1ccc(-c2c[nH]c(NC(=O)Nc3ccccc3OC(F)(F)F)nc2=O)cc1)Cc1nccs1 [Compound 340],> 16
20,O=C(Nc1nc(=O)c(-c2ccc(CNCCCCO)cc2)c[nH]1)Nc1cc(F)c(F)cc1F [Compound 341],> 16
21,O=C(Nc1nc(=O)c(-c2ccc(CNCCCCO)cc2)c[nH]1)Nc1ccccc1OC(F)(F)F [Compound 342],> 16

# — patent US9845297B2, “Antimicrobial compounds and methods of making and using the same” (Melinta Therapeutics, Inc., priority 2009, dated 2017)
